{
  "source": "PubChem BioAssay AID1259407",
  "about": "(Chemical Carcinogenesis Research Information System (CCRIS), 2018)",
  "system": "CCRIS mutagenicity, Ames/micronucleus/aberration tests",
  "assay": "CCRIS mutagenicity studies",
  "note": "Calls of active or inactive are those of the source. How the calls were made is not given here.",
  "data": [
    {"smiles": "CC(C)[N+](=O)[O-]", "values": [
      {"measurement": "mutagenic call", "setting": "End Point: IN VITRO CHROMOSOMAL ABERRATIONS, Test System: CHINESE HAMSTER OVARY CELLS, Metabolic Activation: NONE", "result": "inactive; negative"},
      {"measurement": "mutagenic call", "setting": "End Point: IN VITRO CHROMOSOMAL ABERRATIONS, Test System: CHINESE HAMSTER OVARY CELLS, Metabolic Activation: RAT, LIVER, S-9, AROCLOR 1254", "result": "inactive; negative"},
      {"measurement": "mutagenic call", "setting": "End Point: In vitro chromosomal aberrations, Test System: Chinese hamster lung (CHL/IU) cells, Metabolic Activation: None", "result": "inactive; negative"},
      {"measurement": "mutagenic call", "setting": "End Point: In vitro chromosomal aberrations, Test System: Chinese hamster lung (CHL/IU) cells, Metabolic Activation: Rat, Liver, S9, Phenobarbital and 5,6-benzoflavone", "result": "inactive; negative"},
      {"measurement": "mutagenic call", "setting": "Test System: AMES SALMONELLA TYPHIMURIUM, Strain/Indicator: TA98(NR), Metabolic Activation: NONE, Method: PREINCUBATION", "result": "active; positive"},
      {"measurement": "mutagenic call", "setting": "Test System: AMES SALMONELLA TYPHIMURIUM, Strain/Indicator: TA98(NR), Metabolic Activation: RAT, LIVER, S-9, CLOPHEN A-50, Method: PREINCUBATION", "result": "active; positive"},
      {"measurement": "mutagenic call", "setting": "Test System: AMES SALMONELLA TYPHIMURIUM, Strain/Indicator: TA98, Metabolic Activation: RAT, LIVER, S-9, AROCLOR 1254, Method: PREINCUBATION", "result": "active; positive"},
      {"measurement": "mutagenic call", "setting": "Test System: AMES SALMONELLA TYPHIMURIUM, Strain/Indicator: TA98, Metabolic Activation: RAT, LIVER, S-9, CLOPHEN A-50, Method: PREINCUBATION", "result": "active; positive"},
      {"measurement": "mutagenic call", "setting": "Test System: AMES SALMONELLA TYPHIMURIUM, Strain/Indicator: TA98, Metabolic Activation: RAT, LIVER, S-9, KANECHLOR 500, Method: PREINCUBATION", "result": "active; positive"},
      {"measurement": "mutagenic call", "setting": "Test System: AMES SALMONELLA TYPHIMURIUM, Strain/Indicator: TA100(NR), Metabolic Activation: NONE, Method: PREINCUBATION", "result": "active; positive"},
      {"measurement": "mutagenic call", "setting": "Test System: AMES SALMONELLA TYPHIMURIUM, Strain/Indicator: TA100(NR), Metabolic Activation: RAT, LIVER, S-9, CLOPHEN A-50, Method: PREINCUBATION", "result": "active; positive"},
      {"measurement": "mutagenic call", "setting": "Test System: AMES SALMONELLA TYPHIMURIUM, Strain/Indicator: TA100, Metabolic Activation: RAT, LIVER, S-9, AROCLOR 1254, Method: PREINCUBATION", "result": "active; positive"},
      {"measurement": "mutagenic call", "setting": "Test System: AMES SALMONELLA TYPHIMURIUM, Strain/Indicator: TA100, Metabolic Activation: RAT, LIVER, S-9, AROCLOR, Method: PREINCUBATION", "result": "active; positive"},
      {"measurement": "mutagenic call", "setting": "Test System: AMES SALMONELLA TYPHIMURIUM, Strain/Indicator: TA100, Metabolic Activation: RAT, LIVER, S-9, CLOPHEN A-50, Method: PREINCUBATION", "result": "active; positive"},
      {"measurement": "mutagenic call", "setting": "Test System: AMES SALMONELLA TYPHIMURIUM, Strain/Indicator: TA100, Metabolic Activation: RAT, LIVER, S-9, KANECHLOR 500, Method: PREINCUBATION", "result": "active; positive"},
      {"measurement": "mutagenic call", "setting": "Test System: AMES SALMONELLA TYPHIMURIUM, Strain/Indicator: TA102, Metabolic Activation: NONE, Method: PREINCUBATION", "result": "active; positive"},
      {"measurement": "mutagenic call", "setting": "Test System: AMES SALMONELLA TYPHIMURIUM, Strain/Indicator: TA102, Metabolic Activation: RAT, LIVER, S-9, AROCLOR 1254, Method: PREINCUBATION", "result": "active; positive"},
      {"measurement": "mutagenic call", "setting": "Test System: AMES SALMONELLA TYPHIMURIUM, Strain/Indicator: TA102, Metabolic Activation: RAT, LIVER, S-9, AROCLOR, Method: PREINCUBATION", "result": "active; positive"},
      {"measurement": "mutagenic call", "setting": "Test System: CHINESE HAMSTER V-79, Strain/Indicator: V-79/6-THIOGUANINE, Metabolic Activation: NONE, Method: STANDARD PLATE", "result": "active; positive"},
      {"measurement": "mutagenic call", "setting": "Test System: CHINESE HAMSTER V-79, Strain/Indicator: V-79/6-THIOGUANINE, Metabolic Activation: RAT, HEPATOCYTES", "result": "inactive; negative"},
      {"measurement": "mutagenic call", "setting": "Test System: CHINESE HAMSTER V-79, Strain/Indicator: V-79/OUABAIN, Metabolic Activation: NONE", "result": "inactive; negative"},
      {"measurement": "mutagenic call", "setting": "Test System: CHINESE HAMSTER V-79, Strain/Indicator: V-79/OUABAIN, Metabolic Activation: RAT, HEPATOCYTES", "result": "inactive; negative"},
      {"measurement": "mutagenic call", "setting": "Test System: E. COLI, Strain/Indicator: WP2 UVRA (PKM101), Metabolic Activation: NONE, Method: PREINCUBATION", "result": "active; positive"},
      {"measurement": "mutagenic call", "setting": "Test System: E. COLI, Strain/Indicator: WP2 UVRA (PKM101), Metabolic Activation: RAT, LIVER, S-9, KANECHLOR 1254, Method: PREINCUBATION", "result": "active; positive"},
      {"measurement": "mutagenic call", "setting": "Test System: UDS HUMAN HEPATOCYTES, Strain/Indicator: THY INCORP, Metabolic Activation: NONE, Method: AUTORADIOGRAPHY", "result": "active; positive"},
      {"measurement": "mutagenic call", "setting": "Test System: UDS HUMAN HEPATOCYTES, Strain/Indicator: THY-INCORP, Metabolic Activation: NONE, Method: AUTORADIOGRAPHY", "result": "active; positive"},
      {"measurement": "mutagenic call", "setting": "Test System: UDS MOUSE HEPATOCYTES, Strain/Indicator: THY INCORP, Metabolic Activation: NONE, Method: AUTORADIOGRAPHY", "result": "active; positive"},
      {"measurement": "mutagenic call", "setting": "Test System: UDS RAT HEPATOCYTES, Strain/Indicator: THY INCORP, Metabolic Activation: NONE", "result": "active; positive"},
      {"measurement": "mutagenic call", "setting": "Test System: UDS RAT HEPATOCYTES, Strain/Indicator: THY INCORP, Metabolic Activation: NONE, Method: AUTORADIOGRAPHY", "result": "active; positive"},
      {"measurement": "mutagenic call", "setting": "Test System: UDS RAT HEPATOCYTES, Strain/Indicator: THY-INCORP, Metabolic Activation: NONE, Method: AUTORADIOGRAPHY", "result": "active; positive"},
      {"measurement": "mutagenic call", "setting": "Test System: UDS RODENT HEPATOCYTES, Strain/Indicator: THY INCORP (NON-S-PHASE), Metabolic Activation: IN VIVO, Method: AUTORADIOGRAPHY", "result": "active; positive"},
      {"measurement": "mutagenic call", "setting": "Test System: UDS RODENT HEPATOCYTES, Strain/Indicator: THY INCORP (NON-S-PHASE), Metabolic Activation: NONE, Method: LIQUID SCINTILLATION COUNTING", "result": "active; positive"},
      {"measurement": "mutagenic call", "setting": "Test System: UDS RODENT HEPATOCYTES, Strain/Indicator: THY INCORP (NON-S-PHASE), Metabolic Activation: NONE, Method: PREINCUBATION", "result": "inactive; negative"}
    ]}
  ]
}
